US10913744B2, “LRRK2 inhibitors and methods of making and using the same” (Dana-Farber Cancer Institute, Inc., priority 2015, dated 2021)
Read-outs that look alike come from different tables or passages of the source.

Tests used:
SYK [1] = biological target: T1, SYK (Homo sapiens (Human), UniProt P43405); experiment: KinomeScan; assay type: binding; conditions: 1 uM
CDK2 = CDK2 (Homo sapiens (Human), UniProt P24941); experiment: KinomeScan; assay type: binding; conditions: 1 uM
MARK4 = MARK4 (Homo sapiens (Human), UniProt Q96L34); experiment: Dundee profiling
[2] = biological target: EGFR (L747-S752del, P753S) (Homo sapiens (Human), UniProt P00533, DEL747-752/P753S); experiment: KinomeScan; assay type: binding; conditions: 1 uM
PINK = experiment: Dundee profiling
AMPK (hum) = experiment: Dundee profiling
[3] = biological target: TYK2 (JH1domain-catalytic) (Homo sapiens (Human), UniProt P29597); experiment: KinomeScan; assay type: binding; conditions: 1 uM
EGFR (L858R) = EGFR (L858R) (Homo sapiens (Human), UniProt P00533, L858R); experiment: KinomeScan; assay type: binding; conditions: 1 uM
SYK [4] = biological target: T1, SYK; experiment: Dundee profiling
EPH-B1 = EPH-B1 (Homo sapiens (Human), UniProt P54762); experiment: Dundee profiling
IGF-1R = IGF-1R (Homo sapiens (Human), UniProt P08069); experiment: Dundee profiling
[5] = biological target: TYK2 (JH2domain-pseudokinase) (Homo sapiens (Human), UniProt P29597); experiment: KinomeScan; assay type: binding; conditions: 1 uM
NEK2a = NEK2a (Homo sapiens (Human), UniProt P51955); experiment: Dundee profiling
CAMK1 = CAMK1 (Homo sapiens (Human), UniProt Q14012); experiment: Dundee profiling
CSNK1G2 = CSNK1G2 (Homo sapiens (Human), UniProt P78368); experiment: KinomeScan; assay type: binding; conditions: 1 uM
SIK2 = SIK2 (Homo sapiens (Human), UniProt Q9H0K1); experiment: Dundee profiling
HIPK2 = HIPK2 (Homo sapiens (Human), UniProt Q9H2X6); experiment: Dundee profiling
CLK2 = CLK2 (Homo sapiens (Human), UniProt P49760); experiment: Dundee profiling
PFTK1 = PFTK1 (Homo sapiens (Human), UniProt O94921); experiment: KinomeScan; assay type: binding; conditions: 1 uM
CHK2 = CHK2 (Homo sapiens (Human), UniProt O96017); experiment: Dundee profiling
[6] = biological target: GST-LRRK2[A2016T](1326-2517) (Homo sapiens (Human), UniProt Q5S007, A2016T); experiment: Nictide peptide kinase assay, 100 μM ATP; assay type: biochemical; conditions: 20 μM Nictide
Procedure: (§1) Assay procedures are further discussed in Section 4 herein.
(§2) Samples were washed extensively and the incorporation of [γ-32P]ATP into Nictide was quantified by Cerenkov counting. IC50 values were calculated with GraphPad Prism using non-linear regression analysis.

[7] = biological target: GST-LRRK2[G2019S + A2016T](1,326-2,517) (Homo sapiens (Human), UniProt Q5S007, A2016T/G2019S); experiment: Nictide peptide kinase assay, 100 μM ATP; assay type: biochemical; conditions: 20 μM Nictide
Procedure: as §1, §2

[8] = biological target: GST-LRRK2(1,326-2,517) wild-type (Homo sapiens (Human), UniProt Q5S007); experiment: Nictide peptide kinase assay, 100 μM ATP; assay type: biochemical; conditions: 20 μM Nictide
Procedure: as §1, §2

[9] = biological target: GST-LRRK2[G2019S](1,326-2,527) (Homo sapiens (Human), UniProt Q5S007, G2019S); experiment: Nictide peptide kinase assay, 100 μM ATP; assay type: biochemical; conditions: 20 μM Nictide
Procedure: as §1, §2

Lck = Lck (Homo sapiens (Human), UniProt P06239); experiment: Dundee profiling
CIT = CIT (Homo sapiens (Human), UniProt O14578); experiment: KinomeScan; assay type: binding; conditions: 1 uM
MARK2 = MARK2 (Homo sapiens (Human), UniProt Q7KZI7); experiment: Dundee profiling
EGFR (G719S) = EGFR (G719S) (Homo sapiens (Human), UniProt P00533, G719S); experiment: KinomeScan; assay type: binding; conditions: 1 uM
BMPR2 = BMPR2 (Homo sapiens (Human), UniProt Q13873); experiment: KinomeScan; assay type: binding; conditions: 1 uM
[10] = biological target: JAK1 (JH2domain-pseudokinase) (Homo sapiens (Human), UniProt P23458); experiment: KinomeScan; assay type: binding; conditions: 1 uM
BRSK1 = BRSK1 (Homo sapiens (Human), UniProt Q8TDC3); experiment: Dundee profiling
LZK = LZK (Homo sapiens (Human), UniProt O43283); experiment: KinomeScan; assay type: binding; conditions: 1 uM
PHK = experiment: Dundee profiling
[11] = read-out: percent remaining enzymatic activity
[12] = read-out: percent remaining enzymatic activity, I1, 1 μM
[13] = read-out: percent remaining enzymatic activity, I10

Chain of CHK2 (O96017 whole entry, species assumed): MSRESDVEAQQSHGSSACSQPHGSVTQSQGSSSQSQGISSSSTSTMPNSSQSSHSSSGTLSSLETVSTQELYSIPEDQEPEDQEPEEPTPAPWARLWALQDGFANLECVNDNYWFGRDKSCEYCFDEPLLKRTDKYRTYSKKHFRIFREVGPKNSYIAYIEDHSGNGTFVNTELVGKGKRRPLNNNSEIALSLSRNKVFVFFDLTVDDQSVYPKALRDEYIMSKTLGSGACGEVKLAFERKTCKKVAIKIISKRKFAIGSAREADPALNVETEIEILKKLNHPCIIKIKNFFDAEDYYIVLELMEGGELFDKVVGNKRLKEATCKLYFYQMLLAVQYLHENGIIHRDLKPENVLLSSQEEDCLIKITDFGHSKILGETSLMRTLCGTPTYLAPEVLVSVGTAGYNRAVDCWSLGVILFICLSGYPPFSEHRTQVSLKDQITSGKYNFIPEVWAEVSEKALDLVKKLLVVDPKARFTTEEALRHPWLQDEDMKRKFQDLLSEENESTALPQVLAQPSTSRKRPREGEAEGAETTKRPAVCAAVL
Chain of HIPK2 (Q9H2X6 whole entry, looked up, species assumed): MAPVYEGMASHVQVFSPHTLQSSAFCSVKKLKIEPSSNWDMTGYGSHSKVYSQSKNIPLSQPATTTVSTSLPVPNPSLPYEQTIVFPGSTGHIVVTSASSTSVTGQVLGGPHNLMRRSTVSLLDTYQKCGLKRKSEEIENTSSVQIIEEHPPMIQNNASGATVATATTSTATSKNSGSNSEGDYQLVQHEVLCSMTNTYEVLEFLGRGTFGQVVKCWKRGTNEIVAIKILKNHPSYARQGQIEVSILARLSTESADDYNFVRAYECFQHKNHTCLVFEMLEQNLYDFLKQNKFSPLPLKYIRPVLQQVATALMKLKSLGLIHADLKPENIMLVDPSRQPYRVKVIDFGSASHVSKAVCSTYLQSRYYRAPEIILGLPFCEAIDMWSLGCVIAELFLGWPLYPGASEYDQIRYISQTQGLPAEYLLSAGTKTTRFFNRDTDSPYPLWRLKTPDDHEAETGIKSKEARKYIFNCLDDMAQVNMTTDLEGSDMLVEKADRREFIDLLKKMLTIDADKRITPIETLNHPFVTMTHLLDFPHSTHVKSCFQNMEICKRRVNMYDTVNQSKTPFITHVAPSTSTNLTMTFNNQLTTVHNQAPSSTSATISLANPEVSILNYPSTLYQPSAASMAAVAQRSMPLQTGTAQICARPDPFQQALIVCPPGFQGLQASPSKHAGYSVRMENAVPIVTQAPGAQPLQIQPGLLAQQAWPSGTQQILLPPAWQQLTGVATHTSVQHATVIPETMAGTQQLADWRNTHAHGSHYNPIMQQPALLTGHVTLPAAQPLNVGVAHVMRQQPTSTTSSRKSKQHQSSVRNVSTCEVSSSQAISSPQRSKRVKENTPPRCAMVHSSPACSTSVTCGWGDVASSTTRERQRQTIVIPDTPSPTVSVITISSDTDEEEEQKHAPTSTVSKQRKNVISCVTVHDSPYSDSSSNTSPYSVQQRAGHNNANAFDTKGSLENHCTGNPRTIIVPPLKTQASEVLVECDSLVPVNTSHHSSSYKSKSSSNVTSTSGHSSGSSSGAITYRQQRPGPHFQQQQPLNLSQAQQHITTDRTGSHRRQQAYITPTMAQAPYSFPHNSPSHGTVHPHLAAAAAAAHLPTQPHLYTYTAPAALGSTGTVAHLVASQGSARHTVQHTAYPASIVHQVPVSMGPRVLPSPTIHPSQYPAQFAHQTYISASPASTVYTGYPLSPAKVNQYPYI
Chain of BRSK1 (Q8TDC3 whole entry, looked up, species assumed): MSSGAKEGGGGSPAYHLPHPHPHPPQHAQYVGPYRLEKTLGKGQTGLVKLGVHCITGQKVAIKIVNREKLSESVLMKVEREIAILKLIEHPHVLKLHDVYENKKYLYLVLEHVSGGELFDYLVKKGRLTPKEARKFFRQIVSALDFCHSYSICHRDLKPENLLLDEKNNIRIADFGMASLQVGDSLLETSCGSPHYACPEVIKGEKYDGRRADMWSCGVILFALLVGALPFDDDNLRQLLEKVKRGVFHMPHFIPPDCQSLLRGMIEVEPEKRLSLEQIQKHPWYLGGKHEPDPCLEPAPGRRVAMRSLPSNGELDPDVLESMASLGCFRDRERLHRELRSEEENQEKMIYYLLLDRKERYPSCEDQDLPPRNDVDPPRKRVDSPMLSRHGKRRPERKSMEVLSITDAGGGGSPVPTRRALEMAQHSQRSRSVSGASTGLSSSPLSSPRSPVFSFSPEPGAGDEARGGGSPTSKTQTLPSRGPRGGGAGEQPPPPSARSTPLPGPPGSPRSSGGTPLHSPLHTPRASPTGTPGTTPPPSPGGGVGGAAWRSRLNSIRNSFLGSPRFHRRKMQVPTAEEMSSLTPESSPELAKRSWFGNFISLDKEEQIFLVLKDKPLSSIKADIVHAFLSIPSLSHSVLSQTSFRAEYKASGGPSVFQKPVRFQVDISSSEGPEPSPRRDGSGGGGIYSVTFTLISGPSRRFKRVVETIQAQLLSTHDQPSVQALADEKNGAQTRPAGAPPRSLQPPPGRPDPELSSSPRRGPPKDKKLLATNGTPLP
Chain of CLK2 (P49760 whole entry, looked up, species assumed): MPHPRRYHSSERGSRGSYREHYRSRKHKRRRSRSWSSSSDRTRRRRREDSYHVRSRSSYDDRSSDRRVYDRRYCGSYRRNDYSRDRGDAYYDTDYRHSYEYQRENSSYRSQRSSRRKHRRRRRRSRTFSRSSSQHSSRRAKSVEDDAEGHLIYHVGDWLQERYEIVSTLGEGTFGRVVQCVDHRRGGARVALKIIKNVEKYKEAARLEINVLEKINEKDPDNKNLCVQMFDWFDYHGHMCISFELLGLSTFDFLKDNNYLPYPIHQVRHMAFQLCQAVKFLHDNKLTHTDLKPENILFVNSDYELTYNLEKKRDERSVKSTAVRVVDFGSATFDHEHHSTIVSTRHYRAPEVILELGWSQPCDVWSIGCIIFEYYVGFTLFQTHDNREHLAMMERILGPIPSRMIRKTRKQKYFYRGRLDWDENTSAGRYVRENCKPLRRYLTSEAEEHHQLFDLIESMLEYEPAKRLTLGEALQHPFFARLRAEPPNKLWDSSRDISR
Chain of MARK4 (Q96L34 whole entry, looked up, species assumed): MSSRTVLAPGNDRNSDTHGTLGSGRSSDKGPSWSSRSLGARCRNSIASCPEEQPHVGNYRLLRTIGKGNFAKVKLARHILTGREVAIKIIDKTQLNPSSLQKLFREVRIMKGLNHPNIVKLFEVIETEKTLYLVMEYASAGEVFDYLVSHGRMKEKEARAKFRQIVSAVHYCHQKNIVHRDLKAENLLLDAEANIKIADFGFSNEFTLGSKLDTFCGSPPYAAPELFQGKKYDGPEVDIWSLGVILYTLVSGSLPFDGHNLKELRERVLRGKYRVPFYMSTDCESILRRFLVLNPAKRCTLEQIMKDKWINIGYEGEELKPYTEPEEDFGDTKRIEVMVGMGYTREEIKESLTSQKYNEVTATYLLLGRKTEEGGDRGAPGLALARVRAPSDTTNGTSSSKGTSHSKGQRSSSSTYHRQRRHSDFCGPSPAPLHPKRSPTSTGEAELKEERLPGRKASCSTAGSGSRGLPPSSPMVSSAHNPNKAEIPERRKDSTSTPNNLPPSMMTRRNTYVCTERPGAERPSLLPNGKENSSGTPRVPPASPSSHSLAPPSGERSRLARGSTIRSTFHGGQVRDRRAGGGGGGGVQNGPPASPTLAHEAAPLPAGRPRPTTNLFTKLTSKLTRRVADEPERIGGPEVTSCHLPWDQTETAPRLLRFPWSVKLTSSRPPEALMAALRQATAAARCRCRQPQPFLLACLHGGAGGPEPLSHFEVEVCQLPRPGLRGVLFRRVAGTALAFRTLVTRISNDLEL
Chain of EPH-B1 (P54762 18-984, species assumed): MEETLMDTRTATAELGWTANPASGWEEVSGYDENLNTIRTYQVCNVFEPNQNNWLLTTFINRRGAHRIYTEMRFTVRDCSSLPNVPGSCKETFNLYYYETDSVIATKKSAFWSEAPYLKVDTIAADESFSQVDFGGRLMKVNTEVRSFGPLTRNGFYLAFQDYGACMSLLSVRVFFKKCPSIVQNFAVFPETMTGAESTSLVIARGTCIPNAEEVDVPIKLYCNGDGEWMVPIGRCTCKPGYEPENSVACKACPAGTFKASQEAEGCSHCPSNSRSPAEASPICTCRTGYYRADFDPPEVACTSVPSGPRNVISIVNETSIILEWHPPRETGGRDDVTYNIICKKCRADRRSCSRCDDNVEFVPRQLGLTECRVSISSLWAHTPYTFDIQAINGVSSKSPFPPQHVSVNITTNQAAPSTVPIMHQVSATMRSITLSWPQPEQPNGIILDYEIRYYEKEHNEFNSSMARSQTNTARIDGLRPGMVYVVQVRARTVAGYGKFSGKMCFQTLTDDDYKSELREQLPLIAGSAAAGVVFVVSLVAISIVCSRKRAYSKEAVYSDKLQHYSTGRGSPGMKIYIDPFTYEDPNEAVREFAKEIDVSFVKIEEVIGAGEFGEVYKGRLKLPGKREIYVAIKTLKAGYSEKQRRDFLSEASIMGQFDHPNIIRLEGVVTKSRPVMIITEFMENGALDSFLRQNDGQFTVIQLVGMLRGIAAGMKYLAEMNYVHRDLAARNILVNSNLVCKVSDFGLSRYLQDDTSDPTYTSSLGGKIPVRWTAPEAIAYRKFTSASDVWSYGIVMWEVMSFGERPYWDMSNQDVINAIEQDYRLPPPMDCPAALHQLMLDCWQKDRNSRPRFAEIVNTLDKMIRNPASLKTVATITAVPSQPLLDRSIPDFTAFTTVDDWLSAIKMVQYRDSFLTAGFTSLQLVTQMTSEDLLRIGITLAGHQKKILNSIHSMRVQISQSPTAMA
Chain of JAK1 (JH2domain-pseudokinase) (P23458 583-855): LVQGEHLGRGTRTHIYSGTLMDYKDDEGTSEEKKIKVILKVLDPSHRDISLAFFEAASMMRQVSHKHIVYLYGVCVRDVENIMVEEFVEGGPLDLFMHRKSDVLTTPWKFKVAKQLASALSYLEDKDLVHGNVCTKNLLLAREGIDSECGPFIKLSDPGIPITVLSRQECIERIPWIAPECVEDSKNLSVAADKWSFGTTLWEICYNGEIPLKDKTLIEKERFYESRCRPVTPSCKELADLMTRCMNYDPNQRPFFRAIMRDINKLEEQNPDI

CNc1nc(Nc2ccc(C(=O)N3CCOCC3)cc2OC)nc2[nH]cc(Cl)c12 [Compound 18, (4-((5-chloro-4-(methylamino)-7H-pyrrolo[2,3-d]pyrimidin-2-yl)amino)-3-methoxyphenyl)(morpholino)methanone]
KinomeScan value (SYK [1]): 80 | KinomeScan value (CDK2): 95 | percent remaining enzymatic activity (MARK4; I10): 98% | remaining activity at 1 µM (MARK4; [11]): 109% | KinomeScan value [2]: 94 | percent remaining enzymatic activity (PINK; I1, 1 μM): 105% | percent remaining enzymatic activity (PINK; I10): 89% | percent remaining enzymatic activity (AMPK (hum); I1, 1 μM): 104% | percent remaining enzymatic activity (AMPK (hum); I10): 92% | KinomeScan value [3]: 99 | KinomeScan value (EGFR (L858R)): 83 | percent remaining enzymatic activity (SYK [4]; I10): 81% | remaining activity at 1 µM (SYK [4]; [11]): 91% | remaining activity at 1 µM (EPH-B1; [12]): 119% | remaining activity at 1 µM (EPH-B1; [13]): 126% | remaining activity at 1 µM (IGF-1R; [12]): 13% | remaining activity at 1 µM (IGF-1R; [13]): 9% | KinomeScan value [5]: 100 | remaining activity at 1 µM (NEK2a; [12]): 97% | remaining activity at 1 µM (NEK2a; [13]): 103% | remaining activity at 1 µM (CAMK1; [12]): 80% | remaining activity at 1 µM (CAMK1; [13]): 34% | KinomeScan value (CSNK1G2): 100 | remaining activity at 1 µM (SIK2; [12]): 109% | remaining activity at 1 µM (SIK2; [13]): 92% | remaining activity at 1 µM (HIPK2; [12]): 84% | remaining activity at 1 µM (HIPK2; [13]): 43% | remaining activity at 1 µM (CLK2; [12]): 13% | remaining activity at 1 µM (CLK2; [13]): 2% | KinomeScan value (PFTK1): 82 | IC50 (CHK2): 27.6 nM | inhibition at 1 µM (CHK2; read-out: inhibition of kinase activity of the DMSO control): > 90% | remaining activity at 1 µM (CHK2; [12]): 5% | remaining activity at 1 µM (CHK2; [13]): 1% | IC50 [6]: 47.7 nM | IC50 [7]: 19.8 nM | IC50 [8]: 6.6 nM | IC50 [9]: 2.2 nM | remaining activity at 1 µM (Lck; [12]): 97% | remaining activity at 1 µM (Lck; [13]): 111% | KinomeScan value (CIT): 92 | remaining activity at 1 µM (MARK2; [12]): 101% | remaining activity at 1 µM (MARK2; [13]): 82% | KinomeScan value (EGFR (G719S)): 88 | KinomeScan value (BMPR2): 100 | KinomeScan value [10]: 99 | remaining activity at 1 µM (BRSK1; [12]): 94% | remaining activity at 1 µM (BRSK1; [13]): 98% | KinomeScan value (LZK): 92 | percent remaining enzymatic activity (PHK; I1, 1 μM): 13% | percent remaining enzymatic activity (PHK; I10): 1%
